Like-named read-outs stand apart in the source and are kept apart here.
Legend:
serotonin uptake = details: cited from earlier work
male Sprague Dawley rats = assay: Open field test (OFT): locomotor activity and time in center; assay type: in vivo, rat
Experimental: Male Sprague Dawley rats (Charles River Laboratories) weighing 180–200 g on arrival, were used for all behavioral studies, which took place at Melior Discovery (Exton, PA, USA). Rats acclimated to their home cages for at least 1 week before testing, were maintained in a controlled environment on a 12 h light/dark cycle, with no more than 2 rats per cage. Animals received ad libitum access to standard rodent chow and water and were assigned randomly to treatment groups. All animal use and procedures were in accordance with established protocols approved by the Melior IACUC committee, Melior Standard Operation Procedures (SOP), and Transcend Therapeutics. Distinct cohorts of animals were used for each experiment/Figure presented in this manuscript.
Methylone HCl (0.5–30 mg/kg; Cayman Chemical) or Fluoxetine HCl (10 mg/kg; Sigma-Aldrich) were formulated in sterile 0.9% saline vehicle before IP administration. Control animals received saline vehicle. Methylone or saline was administered 30 min prior to FST or OFT testing sessions. Fluoxetine or saline were administered 23.5, 5, and 1 h prior to testing, consistent with previous studies ([19]).
All studies were performed by an experimenter blind to treatment group and according to standard protocols at Melior Discovery (Exton, PA, USA). The OFT was used to assess both locomotor activity and anxiety-like behavior. The OFT was run in a standard rat OFA chamber (17 ^^′′ × 17 ^^′′ × 12 ^^′′ , Med Associates). After habituation to the testing room and drug injection, rats were assessed for 30 min in the OFT using an automated activity monitoring system (MedAssociates). Locomotor activity was measured by recording the total ambulatory distance traveled (cm), reported in 5-min bins for the duration of the 30 min testing period. The center of the open field was defined as a 12 ^^′′ square, a predefined center setting on the MedAssociates analysis software. Time spent in the center of the open field, an anxiolytic measure, was also recorded for the 30 min testing period.

[1] = Pharmacokinetics in plasma and brain after IP dosing; assay type: in vivo; details: rat; for Kp: brain and plasma; for Kp / MRT last / half-life: ip
Experimental: Pharmacokinetics studies were carried out at WuXi Apptec, Inc. (Cranbury, NJ, USA) using standard protocols. All animal use and procedures were approved by the WuXi Apptec, Inc., IACUC. Briefly, terminal blood and brain samples were collected from 6 to 8 week old male Sprague Dawley rats (Hilltop Lab Animals, Inc., Scottsdale, PA, USA) at 0.25, 0.5, 1, 2, 4, and 8 h (N = 3 per group per time point) for the determination of plasma concentrations of methylone following intraperitoneal (IP) dosing of 5, 10, or 15 mg/kg methylone. Since these were terminal collections, three independent rats per group were used for each time point in a single PK curve from which PK parameters (Cmax, AUC, etc.) were generated. Samples were collected into K2EDTA tubes on ice and centrifuged at 3000 × g at 4°C for 5 min within 30 min of collection. Plasma samples were stored at −80°C until analysis by liquid chromatography tandem mass spectrometry (LC-MS/MS). The bioanalytical assay provided a lower limit of quantification (LLOQ) of 1 ng/mL and an upper limit of quantification (ULOQ) of 3000 ng/mL for methylone. The plasma concentration-time data were analyzed using Phoenix WinNonlin (version 8.3) to characterize the PK properties of the analyte. The non-compartmental analysis model and the linear/log trapezoidal method were applied to the calculation of the PK parameters.

[2] = system: vesicular monoamine transporter 2 (VMAT2); parameters: method as in PMID 10528135; details: compared with MDMA; cited from earlier work
mice = system: mice; parameters: method as in PMID 23603357; details: 3–4 doses of 25 mg/kg over a 2-day period, 3 days after dosing; cited from earlier work
[3] = system: serotonin receptor 1A (5-HTR1A); parameters: method as in PMID 23583454; details: not all reports support activity ([43]); cited from earlier work
healthy volunteers = details: cited from earlier work
[4] = binge-dosing regimen; cited from earlier work
[5] = system: other 5-HT, NE, or DA receptors; parameters: method as in PMID 31063768; details: cited from earlier work
[6] = male, Sprague Dawley, plasma, 5 mg/kg IP
[7] = male, Sprague Dawley, plasma, 10 mg/kg IP
[8] = male, Sprague Dawley, plasma, 15 mg/kg IP

**Q.** What does the source list for `CNC(C)C(=O)c1ccc2c(c1)OCO2` (stereo not shown) [methylone, 3,4-methylenedioxy-N-methylcathinone]?
**A.** lower potency for inhibition of serotonin uptake vs MDMA (serotonin uptake; compared with MDMA): 3–4 ×; less potent inhibitor of serotonin uptake than MDMA (serotonin uptake; in vitro, compared with MDMA): 3–4 fold; IC50 (serotonin uptake; in vitro, read-out: IC50 for inhibition of serotonin uptake): 5.75 µM; distance traveled, first 5 min (male Sprague Dawley rats; methylone 0.5–10 mg/kg IP, 30 min before, Figure 4C): did not affect locomotor activity; distance traveled, first 5 min (male Sprague Dawley rats; methylone 0.5–30 mg/kg, retest 24 h post-dose, all groups, Figure 4D): locomotor activity returned to baseline; time spent in the center (male Sprague Dawley rats; methylone 5–30 mg/kg, 30 min after dosing, 30 min test, Figure 5A): significantly increased time spent in the center; distance traveled, first 5 min (male Sprague Dawley rats; methylone 15–30 mg/kg IP, 30 min before, Figure 4C): significantly increased distance traveled; distance traveled over 30-min session, 5-min bins (male Sprague Dawley rats; methylone 15–30 mg/kg IP, Figure 4F): increased distance traveled for the duration of the testing session; plasma concentration ([1]; after 5 mg/kg dose): approximately 8 μM; plasma concentration ([1]; after 10 mg/kg dose): ~18 µM; AUC0–last ([1]; brain, 5 mg/kg IP): 1661 ng·h/g; Tlast ([1]; brain, 5 mg/kg IP): 4.00 h; AUC0–last ([1]; brain, 10 mg/kg IP): 5576 ng·h/g; Tlast ([1]; brain, 10 mg/kg IP): 4.00 h; AUC0–last ([1]; brain, 15 mg/kg IP): 13201 ng·h/g; Tlast ([1]; brain, 15 mg/kg IP): 8.00 h; Kp ([1]; male, Sprague Dawley, 5 mg/kg, 5 mg/kg IP, read-out: AUC ratio (brain: plasma)): 1.83; Kp ([1]; male, Sprague Dawley, 10 mg/kg, 10 mg/kg IP, read-out: AUC ratio (brain: plasma)): 1.72; Kp ([1]; male, Sprague Dawley, 15 mg/kg, 15 mg/kg IP, read-out: AUC ratio (brain: plasma)): 1.8; Kp ([1]; male, Sprague Dawley, 15 mg/kg, across 5, 10, 15 mg/kg IP, read-out: brain to plasma AUC ratio): ~1.8; MRT last ([1]; male, Sprague Dawley, brain, 5 mg/kg, brain, 5 mg/kg IP, read-out: MRT0–last): 41.8 min; half-life ([1]; male, Sprague Dawley, brain, 5 mg/kg, brain, 5 mg/kg IP, read-out: T1/2 (converted)): 41.5 min; MRT last ([1]; male, Sprague Dawley, brain, 10 mg/kg, brain, 10 mg/kg IP, read-out: MRT0–last): 61.8 min; half-life ([1]; male, Sprague Dawley, brain, 10 mg/kg, brain, 10 mg/kg IP, read-out: T1/2 (converted)): 36.4 min; MRT last ([1]; male, Sprague Dawley, brain, 15 mg/kg, brain, 15 mg/kg IP, read-out: MRT0–last): 60.6 min; half-life ([1]; male, Sprague Dawley, brain, 15 mg/kg, brain, 15 mg/kg IP, read-out: T1/2 (converted)): 53 min; MRT last ([1]; male, Sprague Dawley, plasma, 5 mg/kg, plasma, 5 mg/kg IP, read-out: MRT0–last): 40 min; half-life ([1]; male, Sprague Dawley, plasma, 5 mg/kg, plasma, 5 mg/kg IP, read-out: T1/2 (converted)): 35.9 min; MRT last ([1]; male, Sprague Dawley, plasma, 10 mg/kg, plasma, 10 mg/kg IP, read-out: MRT0–last): 64.2 min; half-life ([1]; male, Sprague Dawley, plasma, 10 mg/kg, plasma, 10 mg/kg IP, read-out: T1/2 (converted)): 40.4 min; MRT last ([1]; male, Sprague Dawley, plasma, 15 mg/kg, across 5, 10, 15 mg/kg IP, read-out: mean residence time (MRT0–last)): 42 to 67.8 min; half-life ([1]; male, Sprague Dawley, plasma, 15 mg/kg, across 5, 10, 15 mg/kg IP, read-out: terminal elimination half-life (T1/2)): 36 to 48 min; MRT last ([1]; male, Sprague Dawley, plasma, 15 mg/kg, plasma, 15 mg/kg IP, read-out: MRT0–last): 67.8 min; half-life ([1]; male, Sprague Dawley, plasma, 15 mg/kg, plasma, 15 mg/kg IP, read-out: T1/2 (converted)): 48.7 min; Cmax ([1]; male, Sprague Dawley, brain, 5 mg/kg IP): 3510 ng/g; Cmax ([1]; male, Sprague Dawley, brain, 10 mg/kg IP): 8020 ng/g; Cmax ([1]; male, Sprague Dawley, brain, 15 mg/kg IP): 20000 ng/g; AUC(0-t) [1, 6]: 908 ng·h/mL; Cmax [1, 6]: 1980 ng/mL; AUC(0-t) [1, 7]: 3240 ng·h/mL; Cmax [1, 7]: 4510 ng/mL; AUC(0-t) [1, 8]: 7320 ng·h/mL; Cmax [1, 8]: 8470 ng/mL; Tmax ([1]; male, Sprague Dawley, plasma, 5, 10 or 15 mg/kg IP): 15 min; Tlast ([1]; plasma, 5 mg/kg IP): 4.00 h; Tlast ([1]; plasma, 10 mg/kg IP): 8.00 h; Tlast ([1]; plasma, 15 mg/kg IP): 8.00 h; lower potency at VMAT2 than MDMA [2]: > 10 fold; immobility in the FST (mice): increased immobility; activity at 5-HTR1A [3]: partial agonist; tolerability in two Phase 1 studies (healthy volunteers; healthy volunteers): well-tolerated; tolerability in phase 1 clinical study (healthy volunteers; human doses approximately 100–150 mg): well tolerated, with no severe adverse events reported; tolerability in clinical studies (healthy volunteers; human): well tolerated; effect on anxiety [4]: anxiogenic effects; affinity for other 5-HT, NE, or DA receptors [5]: weak, if any, affinity
